Measurements: patent publication US20250325563A1, “METHODS FOR TREATING METABOLIC SYNDROME” (priority 2023, published 2025)

Tests used:
[1] = Body weight of mice on daily i.p. administration for 6 days (Example 1); format: in vivo, C57BL/6J mice; settings: for Mean body weight: N=10
Procedure: Two months old male C57BL/6J mice were housed (4-5 mice per cage) with food and water available ad libidum at a temperature control of 24-26° C. and a 12 h light/dark cycle. 3-4 days before the start of the study, the mice were randomized into 3 experimental groups (N=10 per group) using online randomization tool (Graph Pad, USA). Body weights of each animal were measured once a day during the entire study, their health conditions were assessed at the same time. Elocalcitol (100 μg/kg), vitamin D3 (cholecalciferol,100 μg/kg), or vehicle control were administrated intraperitoneally once a day for 6 days.

HFD-fed mice [2] = assay: Visceral and subcutaneous fat volumes by MRI (Example 3); format: in vivo, C57BL/6J mice; settings: 15 μg/kg i.p. twice a week for 16 weeks, n=5
Procedure: (§1) Mice were group-housed (4-5 mice per cage) on a proper temperature control of 24-26° C. with a 12 h light/dark cycle with food and water available ad libidum.
Abdominal area of animals was scanned for assessing visceral and subcutaneous fat loading by using magnetic resonance imaging system (MRI, Bruker BioSpin Group, Bruker Corporations, Germany) before experiment and then once a month during the experiment. The study procedure was conducted as follows: mice (n=5 per group) were anesthetized using isoflurane (1.5-2.5% in 1.5 l/min medical oxygen) and placed on a heated animal bed throughout the MRI procedure. Scans were performed using a 9.4T Bruker BioSpec 94/21 USR system connected to a 1H circular polarized transceiver coil and running Para Vision 6.0.1® software (Bruker BioSpin Group, Bruker Corporation, Germany). Respiration was monitored using a respiration pillow (SA Instruments Inc., Stony Brook, USA) and respiration rate was maintained at between 35-70 breaths per minute. Two orientation pilot scans were performed in order to establish the position of the animal and identify anatomical landmarks relevant for planning the subsequent scan. The final Tl-weighted Bruker: RARE sequence was performed using the following parameters: repetition time (TR) 1164 ms, echo time (TE) 6 ms, flip angle 90 degrees, number of averages 2, imaging matrix 320×320×40, spatial resolution 0.125×0.125×0.5 mm. Volumes were segmented manually by an observer blinded to the experiment using ITK-SNAP (V3.8.0). A 40× zoom was used to measure visceral and subcutaneous fat volume, and renal onset was the starting point for the fat volume analysis.

HFD-fed mice [3] = format: in vivo, C57BL/6J mice; settings: 15 μg/kg i.p. twice a week for 16 weeks; for Epididymal fat, absolute organ weight / Epididymal fat, normalized organ weight (organ weight/body weight) / Liver, absolute organ weight / Liver, normalized organ weight (organ weight/body weight): mean ± SEM, n=10
Procedure: as §1

HFD-fed mice [4] = assay: Blood metabolic markers in serum (Example 5); format: in vivo, C57BL/6J mice; settings: for HDL in serum / LDL in serum / Total cholesterol in serum / Triglycerides in serum: 15 μg/kg i.p. twice a week, study week 16
Procedure: as §1
The mice were deeply anesthetized with a terminal dosage of phenobarbital (200-300 mg/kg)24 h after the last study treatment administration and the blood samples were collected from all groups of mice via cardiac puncture using a standardized protocol. Collected blood was allowed to coagulate before centrifugation at 2000×g for 20 min after which the serum was stored at −80° C. until the analysis.

HFD-fed mice [5] = assay: Prevention of total body weight gain in high-fat diet mice (Example 2); format: in vivo, C57BL/6J mice
Procedure: Mice were group-housed (4-5 mice per cage) on a proper temperature control of 24-26° C. with a 12 h light/dark cycle with food and water available ad libidum. […] Body weight was measured once a week and the amount of food and water consumed by the animals was measured once a month.

HFD-fed mice [6] = assay: Glucose tolerance test (GTT); format: in vivo, C57BL/6J mice; settings: glucose 2 g/kg i.p.; study week 16; 15 μg/kg i.p. twice a week
Procedure: as §1
(§2) For GTT, mice were fasted overnight for 10-12 h and blood glucose was measured from the tail blood using Accu-Chek Performa system glucose meter (Roche, Germany) and the baseline glucose values (0 min) were recorded. The animals were then injected intraperitoneally with glucose (2 g/kg) and after glucose injection the blood glucose was measured from tail blood according to this schedule: 15, 30, 60, 90, and 120 min.

HFD-fed mice [7] = assay: Insulin tolerance test (ITT); format: in vivo, C57BL/6J mice; settings: insulin 0,5 U/kg i.p.; study week 16; 15 μg/kg i.p. twice a week
Procedure: as §1
as §2, with “Insulin tolerance test (ITT) was performed at the end of the study (study week 16). For” for “For”, “ITT,” for “GTT,”, “fasted” for “fasted overnight”, “6” for “10-12”, “insulin (0,5 U/kg; diluted from 100 U/ml (Novorapid, Novo Nordisk A/S) with saline 0.9%)” for “glucose (2 g/kg)”

[8] = prolonged use; cited from earlier work
NF-κB = settings: Penna et al., 2009; cited from earlier work
[9] = 100 μg/kg i.p. once a day for 6 days
[10] = admin. day 0 (administration start), 100 μg/kg i.p. once a day
[11] = admin. day 1, 100 μg/kg i.p. once a day
[12] = admin. day 2, 100 μg/kg i.p. once a day
[13] = admin. day 3, 100 μg/kg i.p. once a day
[14] = admin. day 4, 100 μg/kg i.p. once a day
[15] = admin. day 5, 100 μg/kg i.p. once a day
[16] = admin. day 6, 100 μg/kg i.p. once a day
[17] = admin. day −1, before administration start, 100 μg/kg group
[18] = admin. day −2, before administration start, 100 μg/kg group
[19] = admin. day −3, before administration start, 100 μg/kg group
[20] = admin. day −4, before administration start, 100 μg/kg group
[21] = day 7, after administration stopped on day 6
[22] = day 7, after administration stopped on day 6, 100 μg/kg i.p.
[23] = day 8, after administration stopped on day 6
[24] = day 8, after administration stopped on day 6, 100 μg/kg i.p.
[25] = 15 μg/kg i.p. twice a week for 16 weeks

C=C1CC[C@H](O)C/C1=C/C=C1\CCC[C@]2(C)[C@@H]([C@H](C)CCCC(C)C)CC[C@@H]12 [Vitamin D3, cholecalciferol, reference compound]
Weight loss observed [1, 9]: No weight loss was observed | Mean body weight [1, 10]: 23.80 g | Weight change % [1, 11]: −0.84% | Mean body weight [1, 11]: 23.60 g | Weight change % [1, 12]: +0.84% | Mean body weight [1, 12]: 24.00 g | Weight change % [1, 13]: 0% | Mean body weight [1, 13]: 23.80 g | Weight change % [1, 14]: +0.84% | Mean body weight [1, 14]: 24.00 g | Weight change % [1, 15]: +1.68% | Mean body weight [1, 15]: 24.20 g | Weight change % [1, 16]: +2.52% | Mean body weight [1, 16]: 24.40 g | Mean body weight [1, 17]: 23.70 g | Mean body weight [1, 18]: 23.50 g | Mean body weight [1, 19]: 23.50 g | Mean body weight [1, 20]: 23.40 g | Weight change % [1, 21]: +2.94% | Mean body weight [1, 22]: 24.50 g | Weight change % [1, 23]: +3.78% | Mean body weight [1, 24]: 24.70 g

C=C1/C(=C\C=C2/CCC[C@]3(C)[C@@H]([C@H](C)CCCC(C)(C)O)CC[C@@H]23)C[C@@H](O)C[C@@H]1O [1,25 (OH)2D3, 1,25-dihydroxycholecalciferol, reference compound]
Subcutaneous fat level (MRI) compared to the HFD group (HFD-fed mice [2]): no statistically significant effect | Visceral fat level (MRI) compared to the HFD group (HFD-fed mice [2]): no statistically significant effect | Epididymal fat, absolute organ weight (HFD-fed mice [3]): 1874 mg | Epididymal fat, normalized organ weight (organ weight/body weight) (HFD-fed mice [3]): 49.67 mg/g | Liver, absolute organ weight (HFD-fed mice [3]): 1374 mg | Liver, normalized organ weight (organ weight/body weight) (HFD-fed mice [3]): 36.03 mg/g | Effect on triglyceride levels (HFD-fed mice [4]; [25]): lowered the triglyceride levels similar to the ones in the LFD group | HDL in serum (HFD-fed mice [4]): 3.57 mmol/L | LDL in serum (HFD-fed mice [4]): 0.82 mmol/L | Total cholesterol in serum (HFD-fed mice [4]): 4.44 mmol/L | Triglycerides in serum (HFD-fed mice [4]): 0.68 mmol/L

C=C1/C(=C\C=C2/CCC[C@]3(C)C([C@@H](C)C/C=C/C(O)(CC)CC)=CC[C@@H]23)C[C@@H](O)C[C@@H]1F [elocalcitol]
Average body weight after administration was stopped on Day 6 [1, 9]: returned to normal within two days | Mean body weight [1, 10]: 21.50 g | Weight change % [1, 11]: +1.4% | Mean body weight [1, 11]: 21.80 g | Weight change % [1, 12]: −1.4% | Mean body weight [1, 12]: 21.20 g | Weight change % [1, 13]: −5.58% | Mean body weight [1, 13]: 20.30 g | Weight change % [1, 14]: −10.7% | Mean body weight [1, 14]: 19.20 g | Weight change % [1, 15]: −14.42% | Mean body weight [1, 15]: 18.40 g | Weight change % [1, 16]: −18.6% | Mean body weight [1, 16]: 17.50 g | Mean body weight [1, 17]: 21.60 g | Mean body weight [1, 18]: 21.70 g | Mean body weight [1, 19]: 21.60 g | Mean body weight [1, 20]: 21.40 g | Drop of average body weight ([1]; by treatment Day 4, 100 μg/kg i.p. once a day): 10.7% | Average decrease in body weight ([1]; by treatment Day 6, 100 μg/kg i.p. once a day): 18.6% | Weight change % [1, 21]: −16.75% | Mean body weight [1, 22]: 17.90 g | Weight change % [1, 23]: −1.07% | Mean body weight [1, 24]: 19.20 g | Study week at which inhibition of the HFD-induced weight gain reaches statistical significance (HFD-fed mice [5]; 15 μg/kg i.p. twice a week): 7 study week | Lower relative weight gain compared to the vehicle treated HFD mice (HFD-fed mice [5]; 15 μg/kg i.p. twice a week for 16 weeks, study week 16): 20% | Subcutaneous fat level (MRI) compared to the HFD group (HFD-fed mice [2]): significant decrease | Visceral and subcutaneous fat relative to the LFD mice (HFD-fed mice [2]): reversed the visceral and subcutaneous fat of the HFD mice to the levels observed in the LFD mice | Visceral fat level (MRI) compared to the HFD group (HFD-fed mice [2]): significant decrease | Weights of epididymal fat deposits at the study end, group comparison (HFD-fed mice [3]): significantly lower than those in the HFD and HFD+vitD groups | Epididymal fat, absolute organ weight (HFD-fed mice [3]): 1312 mg | Epididymal fat, normalized organ weight (organ weight/body weight) (HFD-fed mice [3]): 36.29 mg/g | Liver, absolute organ weight (HFD-fed mice [3]): 1412 mg | Liver, normalized organ weight (organ weight/body weight) (HFD-fed mice [3]): 39.45 mg/g | Glucose tolerance of the HFD-fed mice (glucose AUC analysis) (HFD-fed mice [6]): statistically significant improvement | Increased insulin resistance observed in the HFD (insulin tolerance test) (HFD-fed mice [7]): reverses the increased insulin resistance observed in the HFD in a statistically significant manner | Effect on cholesterol (the combined HDL and LDL) (HFD-fed mice [4]; [25]): statistically significant cholesterol (the combined HDL and LDL) lowering effect | Effect on triglyceride levels (HFD-fed mice [4]; [25]): lowered the triglyceride levels similar to the ones in the LFD group | HDL in serum (HFD-fed mice [4]): 2.99 mmol/L | LDL in serum (HFD-fed mice [4]): 0.73 mmol/L | Total cholesterol in serum (HFD-fed mice [4]): 3.88 mmol/L | Triglycerides in serum (HFD-fed mice [4]): 0.87 mmol/L | Oral dose above which hypercalcemia may ensue [8]: higher than 300 μg per day | NF-κB inhibition (NF-κB): inhibits NF-κB by blocking the nuclear translocation of the p65 subunit
